Source: paper PMC11818712, “Unveiling the Multitarget Potential of a Rare Caffeoyl Ester from Artemisia capillaris for Diabetes Mellitus: An Integrated In Vitro and In Silico Study” (International Journal of Molecular Sciences, 2025)

Key:
PTP1B = biological target: T1, PTP1B (Homo sapiens, UniProt P18031); assay: PTP1B-inhibitory activity assay (p-NPP substrate); format: biochemical
T1 sequence (P18031 1-435): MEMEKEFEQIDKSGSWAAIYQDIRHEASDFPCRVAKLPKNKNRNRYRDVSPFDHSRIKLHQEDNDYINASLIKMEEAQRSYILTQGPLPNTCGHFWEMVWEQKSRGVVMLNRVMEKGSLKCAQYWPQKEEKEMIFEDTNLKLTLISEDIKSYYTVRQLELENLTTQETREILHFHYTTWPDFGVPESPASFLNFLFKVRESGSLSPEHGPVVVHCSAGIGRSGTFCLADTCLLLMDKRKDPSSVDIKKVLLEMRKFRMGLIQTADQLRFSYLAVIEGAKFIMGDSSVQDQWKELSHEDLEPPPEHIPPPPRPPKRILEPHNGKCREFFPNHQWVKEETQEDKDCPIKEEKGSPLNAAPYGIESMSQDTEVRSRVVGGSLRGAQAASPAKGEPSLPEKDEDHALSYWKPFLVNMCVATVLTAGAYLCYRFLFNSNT
Procedure: Following incubation at 37 °C for 30 min, the reaction was terminated with the addition of 10 M NaOH.

α-glucosidase = α-glucosidase (Saccharomyces cerevisiae, UniProt P53341); format: biochemical; conditions: at the tested concentration
Procedure: Enzyme inhibition studies were carried out spectrophotometrically in a 96-well microplate reader using a procedure reported by Li. A 60 µL reaction mixture, containing 20 µL of 100 mM phosphate buffer (pH 6.8), 20 µL of 2.5 mM p-NPG in the buffer, and 20 µL of PPT-14 dissolved in 10% DMSO, was added to each well. The enzymatic reaction was initiated by the addition of 20 µL of 10 mM phosphate buffer (pH 6.8), containing 0.2 U/mL α-glucosidase to each well. The plate was incubated at 37 °C for 15 min, and then 80 µL of 0.2 mol/L sodium carbonate solution was added to stop the reaction. Immediately after that, the absorbance was recorded at 405 nm using a VERSA max (Molecular Devices, Sunnyvale, CA, USA) microplate reader. Control samples contained the same reaction mixture, except that an equivalent volume of phosphate buffer was added instead of the sample solution. […] The inhibition (%) was calculated as (Ac − As)/Ac × 100%, where Ac was the absorbance of the control, and As was the absorbance of the sample.

[1] = biological target: human recombinant aldose reductase (HRAR) (Homo sapiens, UniProt P15121); assay: Human recombinant aldose reductase (HRAR)-inhibitory activity assay (DL-glyceraldehyde substrate); format: biochemical
Procedure: The reaction mixture was prepared as follows: we combined 100 µL of 0.15 mM nicotinamide adenine dinucleotide phosphate (NADPH), 100 µL of 10mM DL-glyceraldehyde as a substrate, and 5 µL of HRAR with the sample (final concentration of 100 µM for the test compound, dissolved in 100% DMSO) in a total volume of 1.0 mL of 100 mM sodium phosphate buffer (pH 6.2). The AR activity was determined by measuring the decrease in nicotinamide adenine dinucleotide phosphate (NADPH) absorption at 340 nm over a period of 1 min using an Ultrospec-2100pro UV–visible spectrophotometer with Microsoft™ Excel, control by SWIFT II software (Amersham Biosciences, Piscataway, NJ, USA). […] The inhibition percentage (%) was calculated as described for the assay of Renilla luciferase, except that the DA sample/min represented a reduction in absorbance for 1 min with the test samples and substrate. The HRAR-inhibitory activity of each sample was expressed in terms of the IC50 value (µM), which was calculated from the log–dose inhibition curve.

[2] = DPPH radical scavenging activity assay; conditions: free radical scavenging
Procedure: The DPPH radical scavenging activity was evaluated using methods outlined in Blois (1958), with slight modifications. Different concentrations in 160 μL of MeOH (final concentration = 320 μg/mL for the extracts, fractions, and the compounds) were added to 40 μL of a DPPH:MeOH solution (1.5 × 10^−4 M). After gently mixing the sample and letting it stand at room temperature for 30 min, the optical density was measured at 520 nm using a VERSAmax microplate spectrophotometer (Molecular Devices). […] We used L-ascorbic acid as the positive control. The IC50 values presented here are expressed as the mean ± the standard error of the mean of triplicate experiments.

α-glucosidase, sequence (P53341 whole entry): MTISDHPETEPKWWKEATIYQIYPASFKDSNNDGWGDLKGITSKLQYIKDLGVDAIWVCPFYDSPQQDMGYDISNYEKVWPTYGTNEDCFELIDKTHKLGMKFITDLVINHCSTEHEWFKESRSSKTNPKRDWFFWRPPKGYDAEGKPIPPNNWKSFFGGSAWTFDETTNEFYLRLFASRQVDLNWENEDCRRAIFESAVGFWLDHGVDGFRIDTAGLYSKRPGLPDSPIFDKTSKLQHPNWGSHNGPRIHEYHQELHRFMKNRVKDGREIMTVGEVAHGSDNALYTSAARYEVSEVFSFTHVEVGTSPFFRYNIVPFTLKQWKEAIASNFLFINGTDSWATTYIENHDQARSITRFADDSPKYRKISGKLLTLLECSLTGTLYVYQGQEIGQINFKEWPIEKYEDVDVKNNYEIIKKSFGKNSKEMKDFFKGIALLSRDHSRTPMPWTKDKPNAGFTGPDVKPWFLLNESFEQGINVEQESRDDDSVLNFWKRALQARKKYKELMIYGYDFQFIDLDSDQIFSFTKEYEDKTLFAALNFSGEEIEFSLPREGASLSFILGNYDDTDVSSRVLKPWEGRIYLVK

SMILES	IC50 (PTP1B) [µM]	α-glucosidase inhibitory activity (α-glucosidase)	IC50 [1] [µM]	DPPH IC50 [2] [µg/mL]	IC50 [2] [µM]
C[C@@](O)(C(=O)O)[C@H](O)COC(=O)/C=C/c1ccc(O)c(O)c1 [PPT-14, 4-O-caffeoyl-2-C-methyl-D-threonic acid]	64.92 ± 0.34	did not exhibit any α-glucosidase inhibitory activity	19.5 ± 0.51	4.5	14.5
O=C1O[C@H]([C@@H](O)CO)C(O)=C1O [Ascorbic acid, reference compound]	–	–	–	5.6	31.8
